Like-named read-outs stand apart in the source and are kept apart here.
Assays:
[1] = tested on: liver constructs (bioprinted liver organoids); assay: On-chip liver construct albumin secretion (Human Albumin ELISA); type: cell-based; settings: for albumin levels vs 0 mM control: administered after day 6
Method: (§1) Liver construct synthetic functionality, response to acetaminophen insult, and intervention with N-acetyl-L-cysteine. To assess the response of the liver organoid system to toxic drug insult, acetaminophen was employed. Liver organoids were cultured in microreactors as described before for 14 days. Media samples were collected on days 3, 6, 10, and 14. After media collection on day 6, 1 set of organoids continued with normal media, 1 set of organoids were treated with 1 mM APAP, and 1 set of organoids were treated with 10 mM APAP. To assess the effectiveness of a countermeasure treatment to be used in the liver organoid system, N-acetyl-L-cysteine was explored as a clinically relevant treatment against APAP-induced toxicity. This final set of organoids was treated with 10 mM APAP and 20 mM N-acetyl-L-cysteine. During media changes, groups receiving the drug treatment received fresh HCM also containing the appropriate drug concentration.
(§2) For assessment of liver organoid albumin and urea secretion under baseline conditions as well as during exposure to APAP, collected media aliquots were analyzed using a Human Albumin ELISA assay (Alpha Diagnostic International) and the amount of secreted urea in the collected media was determined using a Urea colorimetric assay (BioAssay Systems). For viability assessment, organoids were removed immediately after the final media collection time point (day 14) for staining by LIVE/DEAD viability/cytotoxicity kits (Life Technologies). Staining consisted of incubation in 2 uM calcein AM (stains live cells green) and 4 uM EthD-1 (stains dead cells red) in a 1:1 PBS:HCM solution. Following staining, organoids were washed in PBS, fixed in 4% PFA, transferred to PBS, and imaged using macro-confocal microscopy (Leica TCS LSI). Additionally, media samples were analyzed for presence of lactate dehydrogenase (LDH), an enzyme that is released from cells after toxicity causes cell membrane rupture, using a Lactate Dehydrogenase Assay Kit (Abcam), and for α-GST, a hepatocyte-specific enzyme also released from cells after exposure to toxicity, using an α-GST Assay Kit (Oxford Biomedical Research).

[2] = tested on: liver constructs (bioprinted liver organoids); assay: On-chip liver construct lactate dehydrogenase release into media; type: cell-based, human; settings: for LDH concentration in the media: day 10
[3] = tested on: liver constructs (bioprinted liver organoids); assay: On-chip liver construct viability by LIVE/DEAD staining after APAP / NAC; type: cell-based; settings: day 14
Method: as §1
as §2, with “Following staining, organoids were washed in PBS, fixed in 4% PFA, transferred to PBS, and imaged using macro-confocal microscopy (Leica TCS LSI).” left out

[4] = tested on: liver constructs (bioprinted liver organoids); assay: On-chip liver construct alpha-GST release into media; type: cell-based, human; settings: 10 mM APAP + 20 mM NAC
Method: Liver construct synthetic functionality, response to acetaminophen insult, and intervention with N-acetyl-L-cysteine. To assess the response of the liver organoid system to toxic drug insult, acetaminophen was employed. Liver organoids were cultured in microreactors as described before for 14 days. Media samples were collected on days 3, 6, 10, and 14. After media collection on day 6, 1 set of organoids continued with normal media, 1 set of organoids were treated with 1 mM APAP, and 1 set of organoids were treated with 10 mM APAP. […]
For assessment of liver organoid albumin and urea secretion under baseline conditions as well as during exposure to APAP, collected media aliquots were analyzed using a Human Albumin ELISA assay (Alpha Diagnostic International) and the amount of secreted urea in the collected media was determined using a Urea colorimetric assay (BioAssay Systems). […] Additionally, media samples were analyzed for presence of lactate dehydrogenase (LDH), an enzyme that is released from cells after toxicity causes cell membrane rupture, using a Lactate Dehydrogenase Assay Kit (Abcam), and for α-GST, a hepatocyte-specific enzyme also released from cells after exposure to toxicity, using an α-GST Assay Kit (Oxford Biomedical Research).

[5] = tested on: liver constructs (bioprinted liver organoids); assay: On-chip liver construct urea secretion (colorimetric assay); type: cell-based, human
Method: as §1
as §2, with “Following staining, organoids were washed in PBS, fixed in 4% PFA, transferred to PBS, and imaged using macro-confocal microscopy (Leica TCS LSI).” left out

cardiac organoids [6] = tested on: cardiac organoids
Method: To test the integrated response of the liver and cardiac system to epinephrine and propranolol combinations, the experimental groups described above were prepared and the same protocol (individual unit incubation prior to joining of modules) was followed. However, the incubation period was lengthened to overnight (18 hours). Both Group 1 and Group 2 were administered 0.1 uM propranolol. After the incubation period, the modules were joined and 0.5 uM epinephrine was be administered to both groups. Additionally, in parallel, a Group 3 condition was employed, which mirrored Group 2, but used a 2D hepatocyte culture (1-2 million cells/well) instead of the liver construct as a 2D comparison.

cardiac organoids [7] = assay: Cardiac organoid beating rate response to drugs (onboard camera / microscope); type: cell-based, human
Source text: Cardiac construct baseline function monitoring and beat rate response to drugs. […] First the cover of the webcam is disassembled to retrieve the CMOS sensor. The lens of the webcam is then detached from its initial location, flipped, and integrated back to the holder to convert it into a magnifying lens. A base was then constructed for the mini-microscope to fit onto the bottom of the bioreactors. The base consisted of a dual-layer structure of PMMA sheets (⅛″ Thick, 12″×12″, McMaster 8505K11) cut into the dimensions of the bioreactors using a laser cutter (VLS 2.30 Desktop Laser System, Universal Laser Systems). Using 4 sets of screw/bolts, the CMOS module was tightly clamped in between a pair of PMMA structures. Additional 4 sets of screw/bolts were further mounted at the corners of the structures to function as the focus knobs. Only very minor alteration to the bioreactor itself was needed, i.e., 4 extra holes were drilled on the lower PMMA board to fit the imager at the bottom. During culture of cardiac constructs, videos were captured to analyze cardiac organoid beating rates. Video files were analyzed using custom written MatLab code with a series of MatLab functions. The software created a reference frame, based on the first frame of the video, and compared pixels in each subsequent frame, determining which pixels represented movement over time. The moving pixels in each frame were then used to generate a black and white pixilated representation of beat behavior, allowing visualization of beat propagation, and generation a plot showing the number of moving pixels versus time, allowing determination of beating rates.

cardiac organoids [8] = settings: for increase in beating rate: 0.5 μM
Method: Integrated organoid system and integrated response to drugs. To evaluate how the combination of both organoid types together impact drug response, epinephrine and propranolol were tested independently and jointly. In the independent scenario, organoid platforms were prepared in two groups: Group 1 consisted of a set of organoids comprised only of cardiac, with “blank” liver modules. Group 2 consisted of both cardiac and liver. However, it should be noted that cardiac and liver constructs were kept separate for the incubation period, while the drug was administered to the liver construct or “blank” liver module, after which the modules were joined for 30 minutes prior to cardiac beating rate assessment. Baseline cardiac organoid beating rates were determined in each group prior to drug administration. Then, the drugs—either 0.1 μM propranolol or 0.5 μM epinephrine—were administered, allowed to incubate for 1 hour, after which the modules were joined, and data was collected.

[9] = tested on: bioprinted cardiac tissue constructs (rat neonatal cardiomyocytes); assay: Bioprinted rat cardiac tissue constructs, response to cardiac drugs; type: cell-based
Source text: In this study, 3D bioprinting was applied to fabricate functional and contractile cardiac tissue constructs. Rat neonatal heart tissues were obtained to isolate cardiomyocytes, and the cells were suspended in a fibrin-based hydrogel bioink. Cell-laden hydrogel was printed through a 300-micron nozzle by pneumatic pressure. […] Moreover, tissue development of the printed cardiac tissue could accelerate by Notch signal blockade.

liver organoids [10] = assay: Troglitazone toxicity, organoid viability by CellTiter-Glo ATP assay; type: cell-based, human; settings: liver organoids treated for 48 hours
Method: Organoid viability assays. Organoid viability was assessed by ATP production as a measure of metabolic activity as detailed in the following white paper^1. CellTiter-Glo assay (Promega) was used to measure ATP by transferring one organoid/well to a black, opaque 96-well plate (Corning). Blanks were included using HCM medium (Lonza) at 80 μl/well. 80 μl of prepared CellTiter-Glo buffer was added per well and plate was placed on shaker for 5 minutes to lyse cells, then further incubated for 15 minutes protected from light. Plate was read using plate reader (SpectraMax M5, Molecular Devices) with an integration time of 0.5 see/well. Sample time points were compared via two-sample unequal variance t-test. Live/dead stain was also used to assess viability. Organoids were washed in PBS and then stained with live/dead viability/cytotoxicity kit (Life Technologies): 2 μL/mL ethidium homodimer-1 and 0.5 μL/mL calcein AM (diluted in PBS) for 45 minutes at room temperature, protected from light. Organoids were transferred to a depression glass slide (Erie Scientific) and then imaged using TCS LSI macro confocal microscope with 5× macro objective (Leica).
Troglitazone toxicity. […] Organoid viability was measured using the CellTiter-Glo assay (Promega) as recorded as previously described.

liver organoids [11] = assay: Phospholipid accumulation, HCS LipidTox Phospholipidosis Detection Stain; type: cell-based, human; settings: 48 hour treatment, even with lower concentrations
Method: Accumulation of phospholipids within the organoids was imaged using the HCS LipidTox Phospholipidosis Detection Stain (Invitrogen). LipidTox reagent was added to medium at the same time as the troglitazone at a ratio of 1:500. Following 48 hour drug treatment, organoids were fixed in 4% paraformaldehyde (Sigma Aldrich), washed in PBS, and then transferred to a depression glass slide (Erie Scientific) for imaging using TCS LSI macro confocal with 5× macro objective (Leica).

CC(=O)N[C@@H](CS)C(=O)O [NAC, N-acetyl-L-cysteine]
albumin levels vs 10 mM APAP group ([1]; 10 mM APAP + 20 mM NAC): significantly greater than those of the 10 mM APAP treated group | LDH concentration in the media ([2]; 10 mM APAP + 20 mM NAC): almost identical to the control group | viability (LIVE/DEAD), rescue from APAP ([3]; 10 mM APAP + 20 mM NAC): reduced the level of morbidity | alpha-GST in media ([4]; day 10): about 6 ng/mL | alpha-GST in media ([4]; day 14): ~5 ng/mL | urea levels vs 10 mM APAP ([5]; 10 mM APAP + 20 mM NAC): significantly greater than the 10 mM APAP urea levels | urea levels vs control organoids ([5]; 10 mM APAP + 20 mM NAC): not significantly different than the control organoids

CC(C)NCC(O)COc1cccc2ccccc12 (stereo not drawn) [propranolol]
block of beta-adrenergic effects of 0.5 μM epinephrine (cardiac organoids [6]; 0.1 μM propranolol, Group 1, no liver organoids): successfully blocked | prevention of epinephrine-induced increase in beating rate (cardiac organoids [7]; 0, 0.5, 5, 20 uM propranolol for 20 minutes, then 5 uM epinephrine): more effectively prevented epinephrine-induced increases in beating rates | decrease in beating rate (cardiac organoids [8]; 0.1 μM, cardiac-only system): ~10% | change in beating rate (cardiac organoids [8]; 0.1 μM, in the presence of the liver construct): no decrease in beating rate

CC(=O)Nc1ccc(O)cc1 [APAP, acetaminophen]
albumin levels vs 0 mM control ([1]; 1 mM APAP): significantly decreased | albumin levels vs 0 mM control ([1]; 10 mM APAP): significantly decreased | albumin levels ([1]; 10 mM APAP, day 14): nearly immeasurable | LDH concentration in the media ([2]; 10 mM APAP): clear increase in LDH concentration | LDH levels ([2]; 10 mM APAP, day 14): drop down to baseline | viability (ratio of live to dead cells, LIVE/DEAD) ([3]; 1 mM APAP): 30-50% | viability (LIVE/DEAD) ([3]; 10 mM APAP): few viable cells | urea levels ([5]; 1 mM and 10 mM APAP, after administration): drop in a dose dependent manner

C=C[C@H]1C[N@@]2CC[C@H]1C[C@@H]2[C@@H](O)c1ccnc2ccc(OC)cc12 [quinidine]
organoid beating rate (cardiac organoids [7]; 1 μM): slowed organoid beating rate

CC(C)NCC(O)c1ccc(O)c(O)c1 (stereo not drawn) [Isoproterenol]
organoid beating rate (cardiac organoids [7]; 0.1 mM): increased organoid beating rate

CNC[C@H](O)c1ccc(O)c(O)c1 [epinephrine]
restoration of the epinephrine-induced increase in beat rate (cardiac organoids [6]; 0.5 μM epinephrine after 0.1 μM propranolol, 2D hepatocyte culture instead of liver construct): failed achieve any restoration | increase in BPM (cardiac organoids [6]; 0.5 μM epinephrine after 0.1 μM propranolol, Group 2, liver component added): 1.25 fold | response relative to control epinephrine-only response (cardiac organoids [6]; 0.5 μM epinephrine after 0.1 μM propranolol, Group 2 with 3D liver organoids): approximately 50% | increase in cardiac BPM (cardiac organoids [6]; 0.5 μM epinephrine, controls with no propranolol): 1.5 fold | concentration at which beating rate plateau is reached (cardiac organoids [7]): ≥ 5 µM | organoid beating rate, dose response (cardiac organoids [7]; 0, 0.1, 0.5, 5 and 50 uM): increased in a dose-dependent manner | physiological responses (beating frequency and contraction forces) [9]: showed physiological responses | increase in beating rate (cardiac organoids [8]; cardiac-only system): approximately 40% | increase in beating rate (cardiac organoids [8]; with liver component): ~30%

C[N+](C)(C)CCOC(N)=O [carbachol]
physiological responses (beating frequency and contraction forces) [9]: showed physiological responses

Cc1c(C)c2c(c(C)c1O)CCC(C)(COc1ccc(CC3SC(=O)NC3=O)cc1)O2 (stereo not drawn) [troglitazone]
viability (ATP quantification), dose-response (liver organoids [10]): decrease in viability as concentration of drug is increased | phospholipid accumulation (liver organoids [11]): Considerable phospholipid accumulation
